Laboratory results: US10993895B2, “Composition obtainable by passing singlet oxygen through extra virgin olive oil” (priority 2017, dated 2021)

Columns and labels:
MRSA 10 = test: Infected incised wound of rats, MRSA 10; format: in vivo, Rattus Norvegicus; details: wound infected with MRSA 10; 6 rats
Procedure: (§1) Effectivity Study on Infected Incised Wound of Rattus Norvegicus Experimental Research on Animal Testing
(§2) Method: Solution Preparation Protocol for Infected Incised Wound
(§3) Preparing the solution with these following steps:
(§4) 1. Bacteria from the infected patient clinical isolate is planted on the media by streaking at for quadrant
(§5) 2. The isolated bacteria in separated colonies are dissolved in the tube that contain pz liquid
(§6) 3. In order to analyze the cloudness level of the solution on the tube, nephelometer is used to figure the cloudness level to 0.50 McFarland.
(§7) 4. 0.5 McFarland is equal to 1.5×10^8 CFU bacteria.
(§8) Infected Incised Wound Preparation Protocol on Animals
(§9) 1. Preparation of animals:
(§10) 1. Inject the animals with anesthesia drug containing ketamine hydrochloride, 0.1-0.2 ml
(§11) 2. Place them back into the cage while waiting them to be fully unconscious as the effect of the drug.
(§12) 3. Shave the back hair of the animals with razor blade.
(§13) 4. Give antiseptics, i.e. povidone iodine and alcohol. Wait for three minutes.
(§14) 5. Make a 2-cm long incision on the animal's back. Should any bleeding occurred, wipe with cotton.
(§15) 6. Swipe the incised spot with the bacteria solution using a cotton bud.
(§16) 7. Cover the spot with gauze bandage and stick it with plaster.
8. […]
(§17) The tissue's processing is started after the fixation completed. […] Remove from the oven and leave it in room temperature, then the tissue is ready to dye. […]

MRSA 6 = test: Infected incised wound of rats, MRSA 6; format: in vivo, Rattus Norvegicus; details: wound infected with MRSA 6; 6 rats
Procedure: as §1, §2, §3, §4, §5, §6, §7, §8, §9, §10, §11, §12, §13, §14, §15, §16
8. […]
as §17

[1] = tested on: Incised Wound Rattus Norvegicus; test: Acute toxicity study on incised wound healing in rats; format: in vivo; design: Neo vascularization: key to the marks not given beside the values
Procedure: Research Protocol: Acute Toxicity Study on the Incised Wound healing Rattus Norvegicus In Vivo research on animals
as §9
1. Inject the animals with anesthesia drug containing ketamine hydrochloride, 0.1-0.2 ml as illustrated in 101 of FIG. 1.
2. Place them back into the cage while waiting them fully unconscious as the effect of the drug.
as §12
4. Give antiseptics, i.e. povidone iodine and alcohol. Wait for three minutes as illustrated in 102 of FIG. 1.
5. Make a 2-cm long incision on the animal's back as illustrated in 103 of FIG. 1. Should any bleeding occurred, wipe with cotton.
6. Apply cotton bud ton the incision spot.
7. Cover the spot with gauze bandage and stick it with plaster as illustrated in 104 of FIG. 1.
8. Place the animal back in to the cage.
2. Fixation Tissue Protocol
The skin organs from treatment and control group are taken after the incision, then put them to the bottles containing fixation solution, and give labels. The intensions of the fixation are:
3. Tissue Processing Protocol/Paraffin Block
The tissue's processing is started after the fixation completed. The steps of this process are dehydration, clearing, and impregnation/embedding. […] Afterward, do the clearing by place the tissue into xylol. Then, do the impregnation/embedding by using paraffin. The detail of this process is as follows: After the fixation is completed, the tissues are placed into the following solution, consecutively. 1. Alcohol 70%: - 2. Alcohol 80% 1 hour 3. Alcohol 95%: 2 hour 4. Alcohol 95%: 1 hour 5. Alcohol 100%: 1 hour 6. Alcohol 100%: 1 hour 7. Alcohol 100%: 1 hour 8. Xylol: 1 hour 9. Xylol: 1 hour 10. Xylol: 2 hour 11. Paraffin (56-58° C.): 2 hour 12. Paraffin (56-58° C.) 2 hour 13. Paraffin (56-58° C.) 2 hour
4. Tissue Slicing and Attaching Process on object glass Protocol.
5. Hematoxilin Eosin Dyeing Protocol
The steps of HE dyeing method are:
This research use 24 Rats divided into 4 groups of treatment; they are Vaseline, Sibro, Gentamicin and Test. Composition. Each group has 6 rats.
2. […] After then stopped the bleeding, applied Vaseline, Sibro, Gentamicin and Test Composition to each group. Application of Vaseline (201), Sibro (202), Gentamicin (203) and Test Composition (204) are illustrated in FIG. 2.
There are 4 parameters in observing incised wound microscopically, they are Epithelization, Fibroplasia, Neovascularization, and scar.

[2] = incised wound, microscopic (HE), after 7 days

Compound	Dead Rats (MRSA 10)	Survival (MRSA 10)	Dead Rats (MRSA 6)	Survival (MRSA 6)	Wound condition on day −7 (macroscopic) ([1]; incised wound, macroscopic condition)	Epitheliazation [1, 2]	Fibroplasia [1, 2]	Neo vascularization [1, 2]	Scar [1, 2]	Dead Rats ([1]; substance applied on 2-cm incised wound, 6 rats per group, up to day 7)	Survival on day −7 ([1]; substance applied on 2-cm incised wound, survivors/6 rats)
C/C(=C\C(=O)OCCCCCCCCC(=O)O)C[C@@H]1OC[C@H](C[C@@H]2O[C@H]2[C@@H](C)[C@H](C)O)[C@@H](O)[C@H]1O [mupirocine, Mupirocin]	0	6	0	6	–	–	–	–	–	–	–
Gentamicin [Gentamisin]	–	–	–	–	Closing (with 1 granulation)	+	+	++	+	0	6/6
